Measurements: article PMC4424558, “Antimicrobial and antioxidant flavonoids from the leaves of Oncoba spinosa Forssk. (Salicaceae)” (BMC Complementary and Alternative Medicine, 2015)
Converted amounts (≈) assume the structure as drawn. Like-named read-outs stand apart in the source and are kept apart here.

Columns and labels:
[1] = tested on: Candida parapsilosis; experiment: Broth microdilution MIC/MFC against Candida parapsilosis; assay type: cell-based; settings: Candida parapsilosis clinical isolate; for MIC: 37°C, 48 h
Protocol: (§1) The studied microorganisms were both reference (from the American Type Culture Collection) and clinical (from Pasteur Institute Paris, France) strains of Enterobacter aerogenes, Escherichia coli, Klebsiella pneumoniae, Candida albicans, and Cryptococcus neoformans. Also, included were two clinical isolates of Candida parapsilosis and Staphylococcus aureus collected from Pasteur Centre (Yaoundé-Cameroon). The bacterial and fungal species were grown at 37°C and maintained on nutrient agar (NA, Conda, Madrid, Spain) and Sabouraud Dextrose Agar (SDA, Conda) slants respectively.
(§2) The inocula of yeasts and bacteria were prepared from overnight cultures by picking numerous colonies and suspending them in sterile saline (NaCl) solution (0.90%). Absorbance was read at 530 nm for yeasts or at 600 nm for bacteria and adjusted with the saline solution to match that of a 0.50 McFarland standard solution. From the prepared microbial solutions, other dilutions with saline solution were prepared to give a final concentration of 10^6 yeast cells/ml and 10^6 CFU/ml for bacteria.
(§3) The antimicrobial activity was investigated by determining the minimum inhibitory concentrations (MICs), minimum bactericidal concentrations (MBCs) and minimum fungicidal concentrations (MFCs).
(§4) MICs were determined by broth micro dilution. Stock solutions of the tested samples were prepared in 10% v/v aqueous dimethylsulfoxide (DMSO) solution (Fisher chemicals, Strasbourg, France) at concentration of 4096 μg/ml. This was two-fold serially diluted in Mueller-Hinton Broth (MHB) for bacteria and Sabouraud Dextrose Broth (SDB) for fungi to obtain a concentration range of 2048 to 0.25 μg/ml. For every experiment, a sterility check (10% aqueous DMSO and medium), negative control (10% aqueous DMSO, medium and inoculum) and positive control (10% aqueous DMSO, medium, inoculum and water-soluble antibiotics) were included. One hundred microliters of each concentration was introduced into a well (96-wells microplate) containing 90 μl of SDB or MHB and 10 μl of inoculum was added to obtain a final concentration range of 4096 to 0.125 μg/ml. The plates were covered with a sterile lid, and incubated on the shaker at 37°C for 24 h (bacteria) and 48 h (yeasts). MICs were assessed visually after the corresponding incubation period and were taken as the lowest sample concentration at which there was no growth or virtually no growth. The assay was repeated thrice.
(§5) The lowest concentration that yielded no growth after the sub-culturing was taken as the MBCs or MFCs. Chloramphenicol (Sigma-Aldrich, Steinheim, Germany) for bacteria and nystatin (Sigma-Aldrich, Steinheim, Germany) for yeasts were used as positive controls.

[2] = tested on: Cryptococcus neoformans IP 90526; experiment: Broth microdilution MIC/MFC against Cryptococcus neoformans IP 90526; assay type: cell-based; settings: for MIC: 48 h
Protocol: as §1, §2, §3, §4, §5

[3] = tested on: Candida albicans ATCC 9002; experiment: Broth microdilution MIC/MFC against Candida albicans ATCC 9002; assay type: cell-based; settings: for MIC: 48 h
Protocol: as §1, §2, §3, §4, §5

[4] = tested on: Klebsiella pneumoniae ATCC11296; experiment: Broth microdilution MIC/MBC against Klebsiella pneumoniae ATCC11296; assay type: cell-based; settings: for MIC: 37°C, 24 h
Protocol: as §1, §2, §3, §4, §5

[5] = DPPH free radical scavenging assay; assay type: biochemical; settings: 30 min, room temperature, 517 nm
Protocol: The free radical scavenging activity of the MeOH extract as well as some of its isolated compounds was evaluated according to described methods with slight modifications. Briefly, the test samples, prior dissolved in DMSO (SIGMA) beforehand, were mixed with a 20 mg/l 2,2-diphenyl-1-picryl-hydrazyl (DPPH) methanol solution, to give final concentrations of 10, 50, 100, 500 and 1000 μg/ml. After 30 min at room temperature, the absorbance values were measured at 517 nm and converted into percentage of antioxidant activity. L-ascorbic acid was used as a standard control. The percentage of decolouration of DPPH (%) was calculated as follows: %decolourationofDPPH=Absorbanceofcontrol−Absorbanceoftestsample)×100/Absorbanceofcontrol
The percentage of decolouration of DPPH (%) was plotted against the test sample. Also, the percentage of decolouration of DPPH was converted in probits. The probit values were plotted against the logarithmic values of concentrations of the test samples and a linear regression curve was established in order to calculate the EC50 (μg/ml), which is the amount of sample necessary to decrease by 50% the absorbance of DPPH [11]. All the analyses were carried out in triplicate.

[6] = tested on: Enterobacter aerogenes ATCC13048; experiment: Broth microdilution MIC/MBC against Enterobacter aerogenes ATCC13048; assay type: cell-based; settings: for MBC / MIC: Klebsiella aerogenes; for MIC: 37°C, 24 h
Protocol: as §1, §2, §3, §4, §5

[7] = tested on: Escherichia coli ATCC8739; experiment: Broth microdilution MIC/MBC against Escherichia coli ATCC8739; assay type: cell-based; settings: for MIC: 37°C, 24 h
Protocol: as §1, §2, §3, §4, §5

[8] = Trolox equivalent antioxidant capacity (TEAC) assay; assay type: biochemical; settings: ABTS/laccase, 420 nm, 230 s; 20 μg/ml isolated compounds, 10-400 μg/ml MeOH extract; gallic acid equivalents
Protocol: The TEAC test was done as previously described with slight modifications. In a quartz cuvette, to 950 μl acetate buffer (pH = 5.0, 100 mM), the following were added: 20 μl laccase (1 mM stock solution), 20 μl test sample, 10 μl ABTS (2,2′-azinobis(3-ethylbenzothiazoline-6-sulfonic acid)) (74 mM stock solution). The laccase were purified from Sclerotinia sclerotiorum according to the protocol described. The sample concentrations in the assay mixture were 400, 200, 100, 10 μg/ml for the MeOH extract and 20 μg/ml for the isolated compounds. The content of the generated ABTS^●+ radical was measured at 420 nm after 230 s reaction time and was converted to gallic acid equivalents by the use of a calibration curve (Pearson’s correlation coefficient: r = 0.998) constructed with 0, 4, 10, 14, 28, 56, 84 μM gallic acid standards rather than Trolox. Experiments were done in triplicate.

[9] = tested on: Staphylococcus aureus; experiment: Broth microdilution MIC/MBC against Staphylococcus aureus; assay type: cell-based; settings: Staphylococcus aureus clinical isolate; for MIC: 37°C, 24 h
Protocol: as §1, §2, §3, §4, §5

[10] = tested on: bacterial and fungal species; experiment: Broth microdilution, all studied microorganisms (panel summary); assay type: cell-based; settings: for studied microorganisms on which inhibitory effects were noted: out of 7 studied microorganisms
Protocol: as §1, §2, §3, §4, §5

[11] = tested on: bacteria; experiment: Broth microdilution, bacterial strains (panel summary); assay type: cell-based; settings: range over the bacterial strains
Protocol: as §1
The inocula of yeasts and bacteria were prepared from overnight cultures by picking numerous colonies and suspending them in sterile saline (NaCl) solution (0.90%). Absorbance was read at 530 nm for yeasts or at 600 nm for bacteria and adjusted with the saline solution to match that of a 0.50 McFarland standard solution. From the prepared microbial solutions, other dilutions with saline solution were prepared to give a final concentration of 10^6 yeast cells/ml and 10^6 CFU/ml for bacteria. […]
MICs were determined by broth micro dilution. […] MICs were assessed visually after the corresponding incubation period and were taken as the lowest sample concentration at which there was no growth or virtually no growth. […]

[12] = tested on: fungi; experiment: Broth microdilution, fungal strains (panel summary); assay type: cell-based; settings: range over the fungal strains
Protocol: as §1, §2, §3
as §4, with “One hundred microliters of each concentration was introduced into a well (96-wells microplate) containing 90 μl of SDB or MHB and 10 μl of inoculum was added to obtain a final concentration range of 4096 to 0.125 μg/ml. The plates were covered with a sterile lid, and incubated on the shaker at 37°C for 24 h (bacteria) and 48 h (yeasts).” left out, “The assay was repeated thrice.” left out

[13] = Lodderomyces parapsilosis, read-out: MIC
[14] = Lodderomyces parapsilosis, read-out: MFC

| Structure (SMILES) | MFC/MIC [1] | MIC [1, 13] | MFC [1, 14] | MFC/MIC [2] | MIC ([2]; IP90526, 37°C, read-out: MIC) | MFC ([2]; IP90526, read-out: MFC) | MFC/MIC [3] | MIC ([3]; ATCC9002, 37°C, read-out: MIC) | MBC [4] | MBC/MIC [4] | MIC [4] | EC50, concentration scavenging 50% of DPPH radical [5] | MBC/MIC [6] | MBC [6] | MIC [6] | MBC [7] | MBC/MIC [7] | MIC [7] | MBC [9] | MIC [9] | also measured |
| --- | --- | --- | --- | --- | --- | --- | --- | --- | --- | --- | --- | --- | --- | --- | --- | --- | --- | --- | --- | --- | --- |
| O=c1c(O[C@@H]2O[C@H](CO)[C@H](O)[C@H](O)[C@H]2O)c(-c2ccc(O)c(O)c2)oc2cc(O)cc(O)c12 [Compound 4, quercetin 3-O-β-D-galactopyranoside] | 2 | 128 µg/mL (≈ 276 µM) | 256 µg/mL (≈ 551 µM) | 1 | 128 µg/mL (≈ 276 µM) | 128 µg/mL (≈ 276 µM) | 1 | 256 µg/mL (≈ 551 µM) | 64 µg/mL (≈ 138 µM) | 2 | 32 µg/mL (≈ 68.9 µM) | 13.44 µg/mL | 2 | 64 µg/mL (≈ 138 µM) | 32 µg/mL (≈ 68.9 µM) | 128 µg/mL (≈ 276 µM) | 1 | 128 µg/mL (≈ 276 µM) | 128 µg/mL (≈ 276 µM) | 128 µg/mL (≈ 276 µM) | MFC ([3]; ATCC9002, read-out: MFC): 256 µg/mL (≈ 551 µM); Gallic acid equivalent antioxidant capacity (TEAC) [8]: 72.95 µg/mL; MBC/MIC [9]: 1; activity against all the microbial strains (in words) [10]: active against all the microbial strains; studied microorganisms on which inhibitory effects were noted [10]: 7/7 |
| O=C1O[C@H]([C@@H](O)CO)C(O)=C1O [vitamin C, L-ascorbic acid, reference compound] |  |  |  |  |  |  |  |  |  |  |  | 4.72 µg/mL |  |  |  |  |  |  |  |  |  |
| O=C(N[C@H](CO)[C@H](O)c1ccc([N+](=O)[O-])cc1)C(Cl)Cl [chloramphenicol, Chloramphenicol, reference compound] |  |  |  |  |  |  |  |  | 16 µg/mL (≈ 49.5 µM) | 1 | 16 µg/mL (≈ 49.5 µM) |  | 1 | 64 µg/mL (≈ 198 µM) | 64 µg/mL (≈ 198 µM) | 64 µg/mL (≈ 198 µM) | 1 | 64 µg/mL (≈ 198 µM) | 64 µg/mL (≈ 198 µM) | 64 µg/mL (≈ 198 µM) | MBC/MIC [9]: 1; MIC (range over bacteria) [11]: 16 to 64 µg/mL |
| C[C@@H]1[C@H](O)[C@@H](C)/C=C/C=C/CC/C=C/C=C/C=C/C=C/C(O[C@H]2O[C@H](C)[C@@H](O)[C@H](N)[C@@H]2O)CC2O[C@](O)(CC(O)C(O)CCC(O)CC(O)CC(O)CC(=O)O[C@H]1C)CC(O)C2C(=O)O (stereo partly shown) [nystatin, reference compound] | 1 |  |  | 2 |  |  | 1 |  |  |  |  |  |  |  |  |  |  |  |  |  | MIC (range over fungi) [12]: 128 to 256 µg/mL; MFC [1]: 256 µg/mL (≈ 276 µM); MIC [1]: 256 µg/mL (≈ 276 µM); MFC [2]: 256 µg/mL (≈ 276 µM); MIC ([2]; 37°C): 128 µg/mL (≈ 138 µM); MFC [3]: 128 µg/mL (≈ 138 µM); MIC ([3]; 37°C): 128 µg/mL (≈ 138 µM) |
| O=c1c(O)c(-c2ccc(O)c(O)c2)oc2cc(O)cc(O)c12 [Compound 2, quercetin] | 1 | 64 µg/mL (≈ 212 µM) | 64 µg/mL (≈ 212 µM) | 1 | 64 µg/mL (≈ 212 µM) | 64 µg/mL (≈ 212 µM) | 1 | 128 µg/mL (≈ 424 µM) | 64 µg/mL (≈ 212 µM) | 1 | 64 µg/mL (≈ 212 µM) | 5.08 µg/mL | 1 | 64 µg/mL (≈ 212 µM) | 64 µg/mL (≈ 212 µM) | 256 µg/mL (≈ 847 µM) | 2 | 128 µg/mL (≈ 424 µM) | > 256 µg/mL | 256 µg/mL (≈ 847 µM) | MIC (range over fungi) [12]: 64 to 128 µg/mL; MFC ([3]; ATCC9002, read-out: MFC): 128 µg/mL (≈ 424 µM); Gallic acid equivalent antioxidant capacity (TEAC) [8]: 89.86 µg/mL; activity against all the microbial strains (in words) [10]: active against all the microbial strains; studied microorganisms on which inhibitory effects were noted [10]: 7/7 |
| O=C(O)[C@H]1O[C@@H](Oc2cc(O)c3c(=O)cc(-c4ccc(O)cc4)oc3c2)[C@H](O)[C@@H](O)[C@@H]1O [Compound 3, apigenin-7-O-β-D-glucuronopyranoside] | 2 | 64 µg/mL (≈ 143 µM) | 128 µg/mL (≈ 287 µM) | 1 | 128 µg/mL (≈ 287 µM) | 128 µg/mL (≈ 287 µM) |  | > 256 µg/mL | 256 µg/mL (≈ 574 µM) | 1 | 256 µg/mL (≈ 574 µM) | 29.16 µg/mL | 1 | 128 µg/mL (≈ 287 µM) | 128 µg/mL (≈ 287 µM) |  |  | > 256 µg/mL |  | > 256 µg/mL | studied microorganisms on which inhibitory effects were noted [10]: 4/7 |
